Assay results as given in the NIST ThermoML archive (doi:10.1016/j.jct.2015.09.010).
± gives the expanded uncertainty stated by the source.

conditions: 298.15 K; 101.33 kPa; Liquid; Pycnometric method

SMILES	mass density [kg/m3]
CCCCO [butan-1-ol]	806.1 ± 4.8
CCCO [propan-1-ol]	799.7 ± 4.8
CC(C)O [propan-2-ol]	781.1 ± 4.8

Next, values leading:

mass density [kg/m3]	SMILES
777.1 ± 4.8	CC#N [acetonitrile]
785.3 ± 4.8	CCO [ethanol]
786.6 ± 4.8	CO [methanol]
